In PubChem BioAssay (NCI):
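Growth conditions: 96-well plates. Treatment: test compound, 48 hours, 5 concentrations. Analysis: linear interpolation between bracketing concentrations; unreached endpoints set to highest concentration. Here, GI50 denotes the concentration required for 50% inhibition of growth. At the TGI there is no net growth.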

Key:
Experiment in all cases: NCI tumour cell line growth inhibition, 48 h
U251 CNS = test system: U251 CNS
786-0 renal = test system: 786-0 renal
EKVX NSCLC = test system: EKVX NSCLC
ACHN renal = test system: ACHN renal
OVCAR-4 ovarian = test system: OVCAR-4 ovarian
HCT-116 colon = test system: HCT-116 colon
HCC-2998 colon = test system: HCC-2998 colon
MCF7 breast = test system: MCF7 breast
SK-MEL-28 melanoma = test system: SK-MEL-28 melanoma
HOP-62 NSCLC = test system: HOP-62 NSCLC
HCT-15 colon = test system: HCT-15 colon
HS 578T breast = test system: HS 578T breast
PC-3 prostate = test system: PC-3 prostate
OVCAR-5 ovarian = test system: OVCAR-5 ovarian
NCI-H226 lung = test system: NCI-H226 lung
BT-549 breast = test system: BT-549 breast
UO-31 renal = test system: UO-31 renal
M14 melanoma = test system: M14 melanoma
SF-268 CNS = test system: SF-268 CNS
SW-620 colon = test system: SW-620 colon
MALME-3M melanoma = test system: MALME-3M melanoma
NCI-H522 lung = test system: NCI-H522 lung
UACC-62 melanoma = test system: UACC-62 melanoma
MDA-MB-231 breast = test system: MDA-MB-231 breast
NCI-H460 lung = test system: NCI-H460 lung
SN12C renal = test system: SN12C renal
SK-MEL-2 melanoma = test system: SK-MEL-2 melanoma
SK-MEL-5 melanoma = test system: SK-MEL-5 melanoma
RPMI-8226 leukemia = test system: RPMI-8226 leukemia
IGROV1 ovarian = test system: IGROV1 ovarian
HT29 colon = test system: HT29 colon
UACC-257 melanoma = test system: UACC-257 melanoma
A549 NSCLC = test system: A549 NSCLC
TK-10 renal = test system: TK-10 renal
LOX IMVI melanoma = test system: LOX IMVI melanoma
OVCAR-8 ovarian = test system: OVCAR-8 ovarian
NCI/ADR-RES ovarian = test system: NCI/ADR-RES ovarian
CCRF-CEM leukemia = test system: CCRF-CEM leukemia
A498 renal = test system: A498 renal
COLO 205 colon = test system: COLO 205 colon
MDA-MB-435 = test system: MDA-MB-435
SNB-19 CNS = test system: SNB-19 CNS
NCI-H23 lung = test system: NCI-H23 lung
OVCAR-3 ovarian = test system: OVCAR-3 ovarian
DU-145 prostate = test system: DU-145 prostate
MOLT-4 leukemia = test system: MOLT-4 leukemia
HL-60(TB) leukemia = test system: HL-60(TB) leukemia
SNB-75 CNS = test system: SNB-75 CNS
KM12 colon = test system: KM12 colon
SF-539 CNS = test system: SF-539 CNS
HOP-92 NSCLC = test system: HOP-92 NSCLC
K-562 leukemia = test system: K-562 leukemia
RXF 393 renal = test system: RXF 393 renal
CAKI-1 renal = test system: CAKI-1 renal
SF-295 CNS = test system: SF-295 CNS
T-47D breast = test system: T-47D breast

CC(C)(/C=C(\C#N)C(=O)N1CCC[C@@H](n2nc(-c3ccc(Oc4ccccc4)cc3F)c3c(N)ncnc32)C1)N1CCN(C2COC2)CC1
GI50 (U251 CNS): 7.35 µM
TGI (U251 CNS): 25.8 µM
GI50 (786-0 renal): 4.12 µM
TGI (786-0 renal): 18.9 µM
GI50 (EKVX NSCLC): 6.03 µM
TGI (EKVX NSCLC): 19.2 µM
GI50 (ACHN renal): 4.53 µM
TGI (ACHN renal): 17.1 µM
GI50 (OVCAR-4 ovarian): 5.69 µM
TGI (OVCAR-4 ovarian): 20.4 µM
GI50 (HCT-116 colon): 6.31 µM
TGI (HCT-116 colon): 20.1 µM
GI50 (HCC-2998 colon): 15.4 µM
TGI (HCC-2998 colon): 31.5 µM
GI50 (MCF7 breast): 2570 nM
TGI (MCF7 breast): 12.8 µM
GI50 (SK-MEL-28 melanoma): 9.71 µM
TGI (SK-MEL-28 melanoma): 22 µM
GI50 (HOP-62 NSCLC): 10.1 µM
TGI (HOP-62 NSCLC): 25.7 µM
GI50 (HCT-15 colon): 6.11 µM
TGI (HCT-15 colon): 21 µM
GI50 (HS 578T breast): 4.67 µM
TGI (HS 578T breast): 23.8 µM
GI50 (PC-3 prostate): 10.6 µM
TGI (PC-3 prostate): 27.6 µM
GI50 (OVCAR-5 ovarian): 11.3 µM
TGI (OVCAR-5 ovarian): 24.1 µM
GI50 (NCI-H226 lung): 4.3 µM
TGI (NCI-H226 lung): 21.1 µM
GI50 (BT-549 breast): 5.42 µM
TGI (BT-549 breast): 18.6 µM
GI50 (UO-31 renal): 2820 nM
TGI (UO-31 renal): 10.6 µM
GI50 (M14 melanoma): 4.82 µM
TGI (M14 melanoma): 18.8 µM
GI50 (SF-268 CNS): 5.37 µM
TGI (SF-268 CNS): 21.8 µM
GI50 (SW-620 colon): 12.4 µM
TGI (SW-620 colon): 31.3 µM
GI50 (MALME-3M melanoma): 6.07 µM
TGI (MALME-3M melanoma): 19.5 µM
GI50 (NCI-H522 lung): 2800 nM
TGI (NCI-H522 lung): 17.7 µM
GI50 (UACC-62 melanoma): 3.04 µM
TGI (UACC-62 melanoma): 14.3 µM
GI50 (MDA-MB-231 breast): 10.2 µM
TGI (MDA-MB-231 breast): 27.7 µM
GI50 (NCI-H460 lung): 6.3 µM
TGI (NCI-H460 lung): 20.8 µM
GI50 (SN12C renal): 4.3 µM
TGI (SN12C renal): 16.2 µM
GI50 (SK-MEL-2 melanoma): 10.1 µM
TGI (SK-MEL-2 melanoma): 26.2 µM
GI50 (SK-MEL-5 melanoma): 3.96 µM
TGI (SK-MEL-5 melanoma): 13.9 µM
GI50 (RPMI-8226 leukemia): 4.41 µM
TGI (RPMI-8226 leukemia): 33.1 µM
GI50 (IGROV1 ovarian): 4.3 µM
TGI (IGROV1 ovarian): 16.6 µM
GI50 (HT29 colon): 4.69 µM
TGI (HT29 colon): 23.6 µM
GI50 (UACC-257 melanoma): 5.58 µM
TGI (UACC-257 melanoma): 20.4 µM
GI50 (A549 NSCLC): 6.57 µM
TGI (A549 NSCLC): 25.1 µM
GI50 (TK-10 renal): 4.12 µM
TGI (TK-10 renal): 15.9 µM
GI50 (LOX IMVI melanoma): 3.37 µM
TGI (LOX IMVI melanoma): 15.2 µM
GI50 (OVCAR-8 ovarian): 10.8 µM
TGI (OVCAR-8 ovarian): 34.3 µM
GI50 (NCI/ADR-RES ovarian): 14.7 µM
TGI (NCI/ADR-RES ovarian): 43.7 µM
GI50 (CCRF-CEM leukemia): 5.69 µM
TGI (CCRF-CEM leukemia): > 100 µM
GI50 (A498 renal): 1780 nM
TGI (A498 renal): 6.25 µM
GI50 (COLO 205 colon): 5.71 µM
TGI (COLO 205 colon): 24.3 µM
GI50 (MDA-MB-435): 4.81 µM
TGI (MDA-MB-435): 17.3 µM
GI50 (SNB-19 CNS): 8.09 µM
TGI (SNB-19 CNS): 20.6 µM
GI50 (NCI-H23 lung): 11 µM
TGI (NCI-H23 lung): 30.9 µM
GI50 (OVCAR-3 ovarian): 10.5 µM
TGI (OVCAR-3 ovarian): 23.2 µM
GI50 (DU-145 prostate): 12.3 µM
TGI (DU-145 prostate): 26.8 µM
GI50 (MOLT-4 leukemia): 2940 nM
TGI (MOLT-4 leukemia): 13.7 µM
GI50 (HL-60(TB) leukemia): 5.28 µM
TGI (HL-60(TB) leukemia): 32.5 µM
GI50 (SNB-75 CNS): 5.98 µM
TGI (SNB-75 CNS): 20.7 µM
GI50 (KM12 colon): 3.34 µM
TGI (KM12 colon): 14 µM
GI50 (SF-539 CNS): 5.95 µM
TGI (SF-539 CNS): 19 µM
GI50 (HOP-92 NSCLC): 2800 nM
TGI (HOP-92 NSCLC): 11.1 µM
GI50 (K-562 leukemia): 7.49 µM
TGI (K-562 leukemia): > 100 µM
GI50 (RXF 393 renal): 2310 nM
TGI (RXF 393 renal): 7.66 µM
GI50 (CAKI-1 renal): 6.39 µM
TGI (CAKI-1 renal): 18.8 µM
GI50 (SF-295 CNS): 6.39 µM
TGI (SF-295 CNS): 19.6 µM
GI50 (T-47D breast): 4.77 µM
TGI (T-47D breast): 29.5 µM
